Species: Rattus norvegicus
Assay: DrugMatrix - Regimen: Daily Repeat
Assay type: toxicity, organism-based, Sprague-Dawley
Parameters: regimen Daily Repeat, gender Male, age 6-8 weeks
Conditions: in vivo, po, route oral GAVAGE, […]; for ABSOLUTE BASOPHIL / ABSOLUTE EOSINOPHIL / ABSOLUTE LYMPHOCYTE / ABSOLUTE MONOCYTE / ABSOLUTE SEGMENTED NEUTROPHIL / BASOPHIL / EOSINOPHIL / ERYTHROCYTE COUNT / HEMATOCRIT / HEMOGLOBIN / LEUKOCYTE COUNT / LYMPHOCYTE / MEAN CORPUSCULAR HEMOGLOBIN / MEAN CORPUSCULAR HEMOGLOBIN CONCENTRATION / MEAN CORPUSCULAR VOLUME / MONOCYTE / NEUTROPHIL / NUCLEATED RED BLOOD CELLS / PLATELET COUNT: tissue Blood; for ALANINE AMINOTRANSFERASE / ALBUMIN / ALKALINE PHOSPHATASE / ASPARTATE AMINOTRANSFERASE / BLOOD UREA NITROGEN / CARBON DIOXIDE / CHLORIDE / CHOLESTEROL / CREATINE PHOSPHOKINASE / CREATININE / GLUCOSE / LACTATE DEHYDROGENASE / LIPASE / PHOSPHORUS / POTASSIUM / SODIUM / TOTAL BILIRUBIN / TOTAL PROTEIN / URIC ACID: tissue Plasma
[1] = 0 mg/kg, 72 h, dose level Control, time 3 day
[2] = 0 mg/kg, 120 h, dose level Control, time 5 day
[3] = 100 mg/kg, 72 h, dose level Low, time 3 day

CC(=O)Nc1cccc(O)c1 [METACETAMOL]
ABSOLUTE BASOPHIL [1]: 0 CELLS/uL | ABSOLUTE EOSINOPHIL [1]: 0 CELLS/uL | ABSOLUTE LYMPHOCYTE [1]: 14687.67 CELLS/uL | ABSOLUTE MONOCYTE [1]: 164 CELLS/uL | ABSOLUTE SEGMENTED NEUTROPHIL [1]: 1748.33 CELLS/uL | BASOPHIL [1]: 0% | EOSINOPHIL [1]: 0% | ERYTHROCYTE COUNT [1]: 5.51 x10E6/uL | HEMATOCRIT [1]: 33.68% | HEMOGLOBIN [1]: 13.4 G/DL | LEUKOCYTE COUNT [1]: 16.6 x10E3/uL | LYMPHOCYTE [1]: 88.83% | MEAN CORPUSCULAR HEMOGLOBIN [1]: 24.47 pg | MEAN CORPUSCULAR HEMOGLOBIN CONCENTRATION [1]: 39.82 G/DL | MEAN CORPUSCULAR VOLUME [1]: 61.23 fL | MONOCYTE [1]: 0.83% | NEUTROPHIL [1]: 10.33% | NUCLEATED RED BLOOD CELLS [1]: 0 /100WBC | PLATELET COUNT [1]: 1329.67 x10E3/uL | ALANINE AMINOTRANSFERASE [1]: 61.33 u/L | ALBUMIN [1]: 4.18 G/DL | ALKALINE PHOSPHATASE [1]: 332.5 u/L | ASPARTATE AMINOTRANSFERASE [1]: 98.33 u/L | BLOOD UREA NITROGEN [1]: 15.83 mg/dL | CARBON DIOXIDE [1]: 27.83 mmol/L | CHLORIDE [1]: 100 MEQ/L | CHOLESTEROL [1]: 76.17 mg/dL | CREATINE PHOSPHOKINASE [1]: 729.17 u/L | CREATININE [1]: 0.21 mg/dL | GLUCOSE [1]: 151.83 mg/dL | LACTATE DEHYDROGENASE [1]: 484.67 u/L | LIPASE [1]: 10 u/L | PHOSPHORUS [1]: 11.3 mg/dL | POTASSIUM [1]: 6.1 MEQ/L | SODIUM [1]: 142.9 MEQ/L | TOTAL BILIRUBIN [1]: 0.23 mg/dL | TOTAL PROTEIN [1]: 5.68 G/DL | URIC ACID [1]: 1.75 mg/dL | ABSOLUTE BASOPHIL [2]: 0 CELLS/uL | ABSOLUTE EOSINOPHIL [2]: 58.67 CELLS/uL | ABSOLUTE LYMPHOCYTE [2]: 15950.83 CELLS/uL | ABSOLUTE MONOCYTE [2]: 172.5 CELLS/uL | ABSOLUTE SEGMENTED NEUTROPHIL [2]: 2551.33 CELLS/uL | BASOPHIL [2]: 0% | EOSINOPHIL [2]: 0.33% | ERYTHROCYTE COUNT [2]: 5.5 x10E6/uL | HEMATOCRIT [2]: 34.05% | HEMOGLOBIN [2]: 13.42 G/DL | LEUKOCYTE COUNT [2]: 18.73 x10E3/uL | LYMPHOCYTE [2]: 84.5% | MEAN CORPUSCULAR HEMOGLOBIN [2]: 24.42 pg | MEAN CORPUSCULAR HEMOGLOBIN CONCENTRATION [2]: 39.42 G/DL | MEAN CORPUSCULAR VOLUME [2]: 61.97 fL | MONOCYTE [2]: 1% | NEUTROPHIL [2]: 14.17% | NUCLEATED RED BLOOD CELLS [2]: 0.33 /100WBC | PLATELET COUNT [2]: 1143.17 x10E3/uL | ALANINE AMINOTRANSFERASE [2]: 57 u/L | ALBUMIN [2]: 4.17 G/DL | ALKALINE PHOSPHATASE [2]: 347.33 u/L | ASPARTATE AMINOTRANSFERASE [2]: 93.67 u/L | BLOOD UREA NITROGEN [2]: 15.67 mg/dL | CARBON DIOXIDE [2]: 27.17 mmol/L | CHLORIDE [2]: 104.33 MEQ/L | CHOLESTEROL [2]: 69.5 mg/dL | CREATINE PHOSPHOKINASE [2]: 317.17 u/L | CREATININE [2]: 0.2 mg/dL | GLUCOSE [2]: 162.33 mg/dL | LACTATE DEHYDROGENASE [2]: 408.67 u/L | LIPASE [2]: 10.17 u/L | PHOSPHORUS [2]: 11.08 mg/dL | POTASSIUM [2]: 6.36 MEQ/L | SODIUM [2]: 146.07 MEQ/L | TOTAL BILIRUBIN [2]: 0.22 mg/dL | TOTAL PROTEIN [2]: 5.92 G/DL | URIC ACID [2]: 1.47 mg/dL | ABSOLUTE BASOPHIL [3]: 0 CELLS/uL | ABSOLUTE EOSINOPHIL [3]: 56.67 CELLS/uL | ABSOLUTE LYMPHOCYTE [3]: 16234.67 CELLS/uL | ABSOLUTE MONOCYTE [3]: 197 CELLS/uL | ABSOLUTE SEGMENTED NEUTROPHIL [3]: 1911.67 CELLS/uL | BASOPHIL [3]: 0% | EOSINOPHIL [3]: 0.33% | ERYTHROCYTE COUNT [3]: 5.37 x10E6/uL | HEMATOCRIT [3]: 33.67% | HEMOGLOBIN [3]: 13.43 G/DL | LEUKOCYTE COUNT [3]: 18.4 x10E3/uL | LYMPHOCYTE [3]: 88.33% | MEAN CORPUSCULAR HEMOGLOBIN [3]: 25 pg | MEAN CORPUSCULAR HEMOGLOBIN CONCENTRATION [3]: 39.93 G/DL | MEAN CORPUSCULAR VOLUME [3]: 62.73 fL | MONOCYTE [3]: 1% | NEUTROPHIL [3]: 10.33% | NUCLEATED RED BLOOD CELLS [3]: 0 /100WBC | PLATELET COUNT [3]: 1217 x10E3/uL | ALANINE AMINOTRANSFERASE [3]: 68.67 u/L | ALBUMIN [3]: 4.23 G/DL | ALKALINE PHOSPHATASE [3]: 369.67 u/L | ASPARTATE AMINOTRANSFERASE [3]: 101.67 u/L | BLOOD UREA NITROGEN [3]: 14.67 mg/dL | CARBON DIOXIDE [3]: 31 mmol/L | CHLORIDE [3]: 100.67 MEQ/L | CHOLESTEROL [3]: 76.33 mg/dL | CREATINE PHOSPHOKINASE [3]: 371.33 u/L | CREATININE [3]: 0.22 mg/dL | GLUCOSE [3]: 142.67 mg/dL | LACTATE DEHYDROGENASE [3]: 561.67 u/L | LIPASE [3]: 10.33 u/L | PHOSPHORUS [3]: 11.3 mg/dL | POTASSIUM [3]: 6.59 MEQ/L | SODIUM [3]: 143.83 MEQ/L | TOTAL BILIRUBIN [3]: 0.23 mg/dL | TOTAL PROTEIN [3]: 5.8 G/DL | URIC ACID [3]: 1.7 mg/dL

From ChEMBL document CHEMBL3885881, “DrugMatrix”
